Assay results as given in US7598253B2, “Reverse-turn mimetics and methods relating thereto” (Myriad Genetics, Inc., priority 1995, dated 2009).
Values joined by “and” are separate entries in the source; they are usually repeats but may differ in a detail not shown here. Identical values can stand only once. Like-named read-outs stand apart in the source and are kept apart here.

How the values were obtained:
μ opiate receptor = μ opiate receptor (Cavia porcellus, UniProt A0ACM8Q262); assay: biochemical; assay type: binding, guinea pig
male ICR mice = assay: In vivo mouse tail flick assay (radiant heat); details: for % Prolong.: 1 minute post-treatment vs 0 time; for tail flick response time, 1 Min. (single animal) / tail flick response time, 1 Min. (Avg.): 1 minute post-treatment; for tail flick response time, 1 Min. (single animal): cut-off 15 seconds; for tail flick response time, 1 Min. (Avg.) / tail flick response time, 0 Time (Avg.): group mean; for tail flick response time, 0 Time (Avg.) / tail flick response time, 0 Time (single animal): pre-treatment
δ opiate receptor = δ opiate receptor (Cavia porcellus, UniProt A0A286XTF2); assay: Opiate (δ) binding, [3H]DPDPE competitive radioligand binding; set-up: species or system guinea pig
[1] = biological target: opioid receptor (non-selective); assay: Opiate (non-selective) binding, [3H]naloxone; details: [3H]naloxone (1 nM), rat cerebral cortex membranes
[2] = read-out: inhibition of radioligand binding
[3] = 10 μg/5 μl ICV, listed as Test Compound
[4] = 30 μg/5 μl ICV, listed as Test Compound
[5] = reference compounds, [3H]DPDPE bound (2 nM)

Sequence of μ opiate receptor (A0ACM8Q262 1-400): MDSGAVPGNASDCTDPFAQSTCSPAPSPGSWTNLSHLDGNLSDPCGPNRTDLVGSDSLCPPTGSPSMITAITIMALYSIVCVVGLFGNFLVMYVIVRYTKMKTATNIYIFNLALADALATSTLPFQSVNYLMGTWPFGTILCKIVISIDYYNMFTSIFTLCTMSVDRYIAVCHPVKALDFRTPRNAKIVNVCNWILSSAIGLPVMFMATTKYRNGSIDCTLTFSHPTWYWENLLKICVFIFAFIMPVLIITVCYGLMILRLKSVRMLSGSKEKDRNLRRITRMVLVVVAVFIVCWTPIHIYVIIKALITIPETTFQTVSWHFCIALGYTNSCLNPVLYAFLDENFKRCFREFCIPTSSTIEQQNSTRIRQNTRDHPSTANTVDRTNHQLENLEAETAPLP
Sequence of δ opiate receptor (A0A286XTF2 1-366): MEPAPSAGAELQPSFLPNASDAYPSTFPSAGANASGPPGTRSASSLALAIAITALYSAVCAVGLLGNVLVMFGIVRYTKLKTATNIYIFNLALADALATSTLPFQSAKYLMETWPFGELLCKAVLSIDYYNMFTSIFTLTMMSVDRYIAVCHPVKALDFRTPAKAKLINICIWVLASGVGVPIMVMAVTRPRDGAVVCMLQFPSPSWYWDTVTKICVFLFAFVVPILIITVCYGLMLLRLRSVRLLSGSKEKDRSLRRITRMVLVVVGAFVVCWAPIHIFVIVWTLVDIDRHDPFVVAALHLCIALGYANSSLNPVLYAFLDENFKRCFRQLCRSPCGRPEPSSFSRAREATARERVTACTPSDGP

O=C1CN2C(=O)CCN(CCc3ccc(O)cc3)C2CN1CCc1ccccc1 (centres unmarked) [Compound 5] was tested, and the IC50 (μ opiate receptor) was 5.4 ± 0.7 µM, the Ki (μ opiate receptor) was 0.64 ± 0.08 µM and the inhibition at 10 µM (μ opiate receptor; [2]) was 64%. For the same molecule, the “% Prolong.” value (male ICR mice; 10 μg/5 μl ICV) was 6%, the “tail flick response time, 1 Min. (single animal)” value (male ICR mice; [3]) was 7.5 seconds (2×) and 6.7 seconds and 6.8 seconds and the “tail flick response time, 1 Min. (Avg.)” value (male ICR mice; 10 μg/5 μl ICV) was “Avg. 7.1 seconds”. The “tail flick response time, 0 Time (Avg.)” value (male ICR mice; 10 μg/5 μl ICV) was “Avg. = 6.7 seconds”, the “tail flick response time, 0 Time (single animal)” value (male ICR mice; [3]) was 6.5 s and 7.2 s and 6.9 s and 6.2 s and the “% Prolong.” value (male ICR mice; 30 μg/5 μl ICV) was 63%. The “tail flick response time, 1 Min. (single animal)” value (male ICR mice; [4]) was >15 seconds (2×) and 7.2 seconds and 6.3 seconds, the “tail flick response time, 1 Min. (Avg.)” value (male ICR mice; 30 μg/5 μl ICV) was “Avg. > 15 seconds” and the “tail flick response time, 0 Time (Avg.)” value (male ICR mice; 30 μg/5 μl ICV) was “Avg. = 6.7 seconds”. For the same molecule, the “tail flick response time, 0 Time (single animal)” value (male ICR mice; [4]) was 6.5 s and 6.7 s and 7.2 s and 6.3 s, the “% Prolong.” value (male ICR mice; 100 μg/5 μl ICV) was 100% and the “tail flick response time, 1 Min. (single animal)” value (male ICR mice; 100 μg/5 μl ICV) was >15 s. The “tail flick response time, 1 Min. (Avg.)” value (male ICR mice; 100 μg/5 μl ICV) was “Avg. > 15 seconds”, the “tail flick response time, 0 Time (Avg.)” value (male ICR mice; 100 μg/5 μl ICV) was “Avg. = 6.5 seconds” and the “tail flick response time, 0 Time (single animal)” value (male ICR mice; 100 μg/5 μl ICV, listed as Test Compound) was 6.5 seconds (2×) and 6.3 seconds and 6.8 seconds. The “analgesic potency relative to morphine” value (male ICR mice; ICV, tail flick) was 10%-15%, the IC50 (δ opiate receptor; read-out: IC50) was 6.9 ± 1.2 µM and the Ki (δ opiate receptor; read-out: Ki) was 1.7 ± 0.3 µM. The inhibition at 10 µM (δ opiate receptor; [2]) was 60%.
In the case of CCCCCN1C[C@@H]2N(C(=O)OCCc3ccc(O)cc3)CCC(=O)N2[C@@H](CCc2ccccc2)C1=O [Compound 30], the IC50 [1] is reported as 0.027 µM.
With C[C@@H](NC(=O)[C@@H](N)Cc1ccc(O)cc1)C(=O)NCC(=O)N(C)[C@@H](Cc1ccccc1)C(=O)NCCO [DAMGO, (D-Ala^2, N-methyl-phe^4, gly-ol^5)-enkephalin] the “Hill Coefficient” value (μ opiate receptor) was 0.92, the IC50 (μ opiate receptor) was 0.0065 µM and the Ki (μ opiate receptor) was 0.00059 µM. For the same molecule, the IC50 (δ opiate receptor) was 4.8 µM, the Ki (δ opiate receptor) was 1.2 µM and the “Hill Coefficient” value (δ opiate receptor; [5]) was 1.08.
With CN1CC[C@]23c4c5ccc(O)c4O[C@H]2[C@@H](O)C=C[C@H]3[C@H]1C5 [Morphine, reference compound] the “% Prolong.” value (male ICR mice; 10 μg/5 μl ICV) was 100%, the “tail flick response time, 1 Min. (single animal)” value (male ICR mice; 10 μg/5 μl ICV) was >15 s and the “tail flick response time, 1 Min. (Avg.)” value (male ICR mice; 10 μg/5 μl ICV) was “Avg. > 15 seconds”. The “tail flick response time, 0 Time (single animal)” value (male ICR mice; 10 μg/5 μl ICV) was 7.5 s and 6.3 s and 7.2 s and 6.8 s and the “tail flick response time, 0 Time (Avg.)” value (male ICR mice; 10 μg/5 μl ICV) was “Avg. = 7.0 seconds”.
Oc1ccc2c3c1O[C@H]1c4[nH]c5ccccc5c4C[C@@]4(O)[C@@H](C2)N(CC2CC2)CC[C@]314 [Naltrindole] was tested, and the “Hill Coefficient” value (μ opiate receptor) was 0.98, the IC50 (μ opiate receptor) was 0.027 µM and the Ki (μ opiate receptor) was 0.0025 µM. For the same molecule, the “Hill Coefficient” value (δ opiate receptor; [5]) was 0.53.
Oc1ccc2c3c1O[C@H]1c4[nH]c5c(c4C[C@@]4(O)[C@@H](C2)N(CC2CC2)CC[C@]314)C[C@@]1(O)[C@H]2Cc3ccc(O)c4c3[C@@]1(CCN2CC1CC1)[C@H]5O4 [Norbinaltorphimine] was tested, and the “Hill Coefficient” value (μ opiate receptor) was 1.13, the IC50 (μ opiate receptor) was 0.28 µM and the Ki (μ opiate receptor) was 0.026 µM.
For C[C@@H](NC(=O)[C@@H](N)Cc1ccc(O)cc1)C(=O)NCC(=O)N(C)[C@@H](Cc1ccccc1)C(=O)NCCO [[^3H]DAMGO], the Kd (μ opiate receptor; read-out: Kd of radioligand) was 0.00027 µM.
With (D-pen^3, D-pen^5) enkephalin [DPDPE] the “Hill Coefficient” value (μ opiate receptor) was 1.32 and the “Hill Coefficient” value (δ opiate receptor) was 0.86.
